Measured values published in US5294603A, “Pharmaceutical compositions containing didemnins” (The Board of Trustees of The University of Illinois, priority 1992, dated 1994).
In brackets after ≈: the same amount, converted by molar mass. Like-named read-outs stand apart in the source and are kept apart here. Numbered stars: 1 amine (or outer) side, 2 acyl side, 3 side chain; on linkers, the order of the positions; unused ones are H or OH. Bridge positions count the residues as written; N and C are the ends. Square brackets hold non-standard residues; d marks the D form. Peptide text beside a SMILES is read from it. X4 = CC[C@H](C)[C@@H](N[*:1])[C@@H](O)CC(=O)O[C@@H](C(=O)[C@H](C)C(=O)[*:2])C(C)C; X1 = CC[C@H](C)[C@@H](N[*:1])[C@@H](O)CC(=O)O[C@H](C(=O)[C@H](C)C(=O)[*:2])C(C)C; X3 = CC[C@H](C)[C@H](N[*:1])[C@@H](O)CC(=O)O[C@H](C(=O)[C@H](C)C(=O)[*:2])C(C)C; NMeY = CN[C@@H](Cc1ccc(O)cc1)C(=O)O; aThr = C[C@H](O)[C@H](N)C(=O)O; dNMeL = CN[C@H](CC(C)C)C(=O)O

Legend:
[1] = test system: DNA synthesis in Nb2 node lymphoma cells; test: Inhibition of ongoing DNA synthesis in prolactin-stimulated Nb2 cells; assay type: cell-based, rat; conditions: Nb2 cells stimulated with prolactin for 24 h
Experimental: (§1) Also inhibitions of protein and DNA synthesis of several compounds were measured using Nb2 node lymphoma cells which were stimulated by a treatment of cells with prolactin. (ibid.)
(§2) ^a Nb2 cells were stimulated with prolactin for 24 h, then exposed to
(§3) ^b 50% Inhibitory concentration, calculated with linear regression

[2] = test system: Protein synthesis in Nb2 node lymphoma cells; test: Inhibition of ongoing protein synthesis in prolactin-stimulated Nb2 cells; assay type: cell-based, rat; conditions: Nb2 cells stimulated with prolactin for 24 h
Experimental: as §1, §2, §3

[3] = test system: L1210 murine leukemia cells; conditions: Table 9
[4] = test system: Nb2 cells, rat T-cell node lymphoma; test: Competitive binding with [3H]didemnin B to Nb2 cells; conditions: 3 h at 37° C.
Experimental: The immunosuppressive assay was performed by measuring competitive binding of tested compounds with [^3 H]didemnin B to Nb2 cells, rat T-cell node lymphoma. See, Russell, D. H., et al., J. Immunology, 1987, 138, 276-284.
^a Competing didemnins incubated with approximately 25 ng of [^3

L1210 [5] = test: L1210 cytotoxicity, inhibition at fixed doses (Table 10); assay type: cell-based, murine; conditions: tested 4/18/1991
Visna virus (VIV) = assay type: cell-based; parameters: key to % Protection / VIV Protection: I, indeterminate
L1210 [6] = test system: L1210
[7] = test system: cells of the VIV assay (not named)

Structure (SMILES)	IC50 DNA [1]	IC50 Protein [2]	CV-1 (CV-1 monkey kidney cells)	Cytotoxicity L1210 IC50 [3]	Inhibition of [3H]didemnin B binding (%) ([4]; 0.001 μg/mL)	Inhibition of [3H]didemnin B binding (%) ([4]; 0.01 μg/mL)	Inhibition of [3H]didemnin B binding (%) ([4]; 0.1 μg/mL)	Inhibition of [3H]didemnin B binding (%) ([4]; 1 μg/mL)	Inhibition (%) (L1210 [5]; dose 25 ng/mL)	Inhibition (%) (L1210 [5]; dose 250 ng/mL)	VIV Protection (Visna virus (VIV))	Cytotoxicity percent L1210 inhibition (L1210 [6]; dose 5 ng/mL)	Cytotoxicity percent L1210 inhibition (L1210 [6]; dose 12.5 ng/mL)	Cytotoxicity percent L1210 inhibition (L1210 [6]; dose 25 ng/mL)	VIV Toxicity [7]
CC[C@H](C)[C@@H](NC(=O)[C@@H](NC(=O)[C@@H](CC(C)C)NC)[C@@H](C)O)[C@@H](O)CC(=O)O[C@H](C(=O)[C@H](C)C(=O)N[C@@H](CC(C)C)C(=O)N1CCC[C@H]1C(=O)N(C)[C@@H](Cc1ccc(OC)cc1)C(=O)O)C(C)C [Acyclodidemnin A (16), Acyclodidemnin A] (H-[dNMeL]T[X1]LP[NMeY](Me)-OH)	inactive (1 g)	inactive (1 g)	0	30 ng/mL	0%	7%	6%	8%	25%	99%	–	–	–	–	–
CC[C@H](C)[C@H]1NC(=O)[C@@H](NC(=O)[C@@H](CC(C)C)N(C)C(=O)[C@@H]2CCCN2C(=O)[C@H](C)O)[C@@H](C)OC(=O)[C@H](Cc2ccc(O)cc2)NC(=O)[C@@H]2CCCN2C(=O)[C@H](CC(C)C)NC(=O)[C@@H](C)C(=O)[C@H](C(C)C)OC(=O)C[C@@H]1O [Didemnin N (13), Didemnin N]	200,000 ng/mL	–	0	30 ng/mL	3%	6%	4%	10%	–	–	–	–	–	–	–
CC[C@H](C)[C@H]1NC(=O)[C@@H](NC(=O)[C@@H](CC(C)C)NC)[C@@H](C)OC(=O)[C@H](Cc2ccc(OC)cc2)N(C)C(=O)[C@@H]2CCCN2C(=O)[C@H](CC(C)C)NC(=O)[C@@H](C)C(=O)[C@@H](C(C)C)OC(=O)C[C@@H]1O [Epididemnin A (15), Epididemnin A] (H-[dNMeL]T[X4]LP[NMeY](Me); ester 2-C)	inactive (1 g)	–	0	300 ng/mL	0%	3%	9%	12%	–	–	< 0	–	–	–	–
CC[C@H](C)[C@@H]1NC(=O)[C@@H](NC(=O)[C@@H](CC(C)C)N(C)C(C)=O)[C@H](C)OC(=O)[C@H](Cc2ccc(OC)cc2)N(C)C(=O)[C@@H]2CCCN2C(=O)[C@H](CC(C)C)NC(=O)[C@@H](C)C(=O)[C@H](C(C)C)OC(=O)C[C@@H]1O [N-Acetyldidemnin A (54), N-Acetyl didemnin A] (Ac-[dNMeL][aThr][X3]LP[NMeY](Me); ester 2-C)	70 ng/mL (≈ 0.071 µM)	–	–	0.3 ng/mL	2%	12%	72%	80%	–	–	I	89%	93%	94%	94
CC[C@H](C)[C@H]1NC(=O)[C@@H](NC(=O)[C@@H](CC(C)C)NC)[C@@H](C)OC(=O)[C@H](Cc2ccc(OC)cc2)N(C)C(=O)[C@@H]2CCCN2C(=O)[C@H](CC(C)C)NC(=O)[C@@H](C)[C@@H](O)[C@H](C(C)C)OC(=O)C[C@@H]1OC(C)=O [O-Acetyl-[H2-(2S,3R,4S)Hip^2]didemnin A]	–	–	0	1000 ng/mL	0%	0%	2%	19%	–	–	–	–	–	–	–
